Assays:
[1] = target: T1, Protein cereblon/Stimulator of interferon genes protein (Homo sapiens, UniProt Q96SW2+Q86WV6); experiment: Protac activity at CRBN/STING in human THP-1 cells assessed as increase in STING degradation at 10 uM incubated for 48 hrs by Western blot analysis relative to control; assay type: cell-based
Target sequence in this assay (Q86WV6 whole entry, looked up): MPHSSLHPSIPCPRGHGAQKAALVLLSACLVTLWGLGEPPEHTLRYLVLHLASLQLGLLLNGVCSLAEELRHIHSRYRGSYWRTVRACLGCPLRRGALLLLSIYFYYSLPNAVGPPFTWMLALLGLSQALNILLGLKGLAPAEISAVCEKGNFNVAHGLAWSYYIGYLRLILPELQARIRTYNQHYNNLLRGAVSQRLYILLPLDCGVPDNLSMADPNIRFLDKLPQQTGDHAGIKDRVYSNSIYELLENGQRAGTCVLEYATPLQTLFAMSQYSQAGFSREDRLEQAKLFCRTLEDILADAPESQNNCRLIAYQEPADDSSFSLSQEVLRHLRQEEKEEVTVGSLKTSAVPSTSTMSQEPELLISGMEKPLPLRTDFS
Target sequence in this assay (Q96SW2 whole entry, looked up): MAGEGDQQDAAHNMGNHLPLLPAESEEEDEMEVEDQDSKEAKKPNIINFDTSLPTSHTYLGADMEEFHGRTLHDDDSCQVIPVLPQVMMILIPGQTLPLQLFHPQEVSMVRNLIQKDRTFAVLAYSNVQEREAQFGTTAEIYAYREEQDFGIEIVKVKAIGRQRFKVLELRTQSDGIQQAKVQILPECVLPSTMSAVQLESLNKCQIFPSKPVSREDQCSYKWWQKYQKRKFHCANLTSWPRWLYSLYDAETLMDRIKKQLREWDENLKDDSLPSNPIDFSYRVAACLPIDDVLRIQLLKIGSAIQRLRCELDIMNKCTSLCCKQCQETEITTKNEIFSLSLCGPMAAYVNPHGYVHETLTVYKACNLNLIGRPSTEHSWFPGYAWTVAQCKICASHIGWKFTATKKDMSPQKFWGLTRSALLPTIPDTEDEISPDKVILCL

[2] = Cytotoxicity against HEK293-A cells assessed as reduction in cell viability at <10 uM by MTT assay; assay type: toxicity, cell-based; conditions: human
[3] = Cytotoxicity against mouse C17.2 cells assessed as reduction in cell viability at <10 uM by MTT assay; assay type: toxicity, cell-based; conditions: c17.2, 10 µM
[4] = target: T1, Protein cereblon/Stimulator of interferon genes protein; experiment: Protac activity at CRBN/STING in human THP-1 cells assessed as increase in STING degradation incubated for 48 hrs by Western blot analysis; assay type: cell-based
Target sequence in this assay (Q96SW2 whole entry): as the sequence (Q96SW2 whole entry, looked up) above
Target sequence in this assay (Q86WV6 whole entry): as the sequence (Q86WV6 whole entry, looked up) above

L02 = experiment: Cytotoxicity against human L02 cells assessed as reduction in cell viability at <10 uM by MTT assay; assay type: toxicity, cell-based; conditions: l02, 10 µM

With `O=C(/C=C/C(=O)Nc1ccc(NC(=O)c2ccc([N+](=O)[O-])o2)cc1)NCCCCNc1cccc2c1C(=O)N(C1CCC(=O)NC1=O)C2=O` (stereo not given) the Activity [1] was 22%, the Activity [2] was “Non-Toxic” and the Activity [3] was “Non-Toxic”. The DC50 [4] was > 10 µM and the Activity (L02) was “Non-Toxic”.
